Reference: patent US20050107611A1, “Pyrazolyl-substituted triazoloquinoxalines” (priority 2001, published 2005)

Experiments:
human A2B-receptor = biological target: T1, human A2B-receptor (Homo sapiens, UniProt P29275); experiment: Receptor binding assay with [3H]ZM241385 on recombinant A2B-adenosine receptors in HEK cells; conditions: for Ki: Table 2, [3H]ZM241385, read-out: A2B K1
T1 construct: purchased Receptor Biology USA via Perkin Elmer Life Sciences, Cologne, Germany; host or cells: HEK cells (membranes)
T1 sequence (P29275 1-332): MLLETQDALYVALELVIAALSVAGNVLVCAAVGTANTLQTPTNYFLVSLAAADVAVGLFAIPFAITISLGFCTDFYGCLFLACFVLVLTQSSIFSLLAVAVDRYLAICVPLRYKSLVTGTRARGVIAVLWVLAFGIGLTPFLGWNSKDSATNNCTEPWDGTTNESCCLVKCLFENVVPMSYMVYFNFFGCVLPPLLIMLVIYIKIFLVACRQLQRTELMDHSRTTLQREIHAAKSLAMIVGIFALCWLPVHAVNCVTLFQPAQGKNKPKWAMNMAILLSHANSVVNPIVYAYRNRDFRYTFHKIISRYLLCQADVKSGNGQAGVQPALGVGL
From the text: (§1) The data of the biological tests that are cited below results from radioligand-binding assays on A1, A2A, A2B and A3 adenosine receptors (ARs).
(§2) The following selective radioligands are used in the biological tests: • [^3H]CCPA (for A1 ARs) [Klotz et al., Naunyn-Schmiedeberg's Arch. Pharmacol., 340, 679 (1989)] • [^3]MSX-2 (for A2A ARs) [Muiller et al., Eur. J. Pharm. Sci., 10, 259 (2000)] • [^3H]ZM241385 (for A2B ARs_[X.-D. Ji, K. A. Jacobson, Drug Des. Discov., 16, 217 (1999)] • [^3H]PSB-11 (new antagonistic radioligand for human A3 ARs) [M. Dieckmann, M. Thorand, V. Ozola, C. E. Muiller, in Vorbereitung [Preparation] (2001)]. • [^125I]AB-MECA (for rat-A3 ARs) [Olah et al., Mol. Pharmacol., 45, 978 (1994)]. Description of the Assays That are Used for Testing Substances Production of Tissue Preparations Made from Rat Brains
In addition, A28-adenosine receptor membranes are prepared, whereby, for example, finished prepared membranes of HEK cells, which express the human A2B-receptor in high density (about 4 pmol/mg of protein), were available commercially (Receptor Biology USA via Perkin Elmer Life Sciences, Cologne, Germany).
The test substances are dissolved in DMSO to 10 mmol. The final concentration of DMSO in the assay is 2.5% for A1- and A2A-adenosine receptor assays and 1-2% for A2B- and A3-assays. Dilution series of the test substances are produced from the stock solution. Five to eight different test concentrations, which comprise 3 orders of magnitude (e.g., 1 nm to 1000 nm), are used. […]
(§3) The mean value is calculated from three independent experiments. IC50 and K, values are obtained from the Cheng-Prusoff equation, the concentration and the KD value of the radioligand. For calculation, the program GraphPadPrism™, Version 3.0 (GraphPad, San Diego, Calif., USA), was used.

[1] = biological target: T2, human A3 adenosine receptor (Homo sapiens, UniProt P0DMS8); experiment: Receptor binding assay with [3H]PSB-11 on recombinant A3-adenosine receptors expressed in CHO cells; conditions: for Ki: Table 2, [3H]PSB-11, read-out: A3 K1
T2 construct: expressed in transfected cells; host or cells: CHO cells
T2 sequence (P0DMS8 1-318): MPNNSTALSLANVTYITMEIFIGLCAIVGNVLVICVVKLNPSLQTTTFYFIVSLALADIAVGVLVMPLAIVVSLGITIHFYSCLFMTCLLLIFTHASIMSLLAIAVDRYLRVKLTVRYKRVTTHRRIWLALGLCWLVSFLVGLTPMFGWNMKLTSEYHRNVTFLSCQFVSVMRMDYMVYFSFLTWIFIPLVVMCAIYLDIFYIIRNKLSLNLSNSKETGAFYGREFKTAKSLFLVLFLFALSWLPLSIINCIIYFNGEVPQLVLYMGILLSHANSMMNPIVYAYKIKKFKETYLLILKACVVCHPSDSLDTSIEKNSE
From the text: as §1, §2
For CHO cells, which express the A3-adenosine receptor, the operating steps are also performed analogously to the A1-adenosine receptor-CHO culture. The medium is used as described above.
Preparation of Recombinant Human A3-Adenosine Receptors Expressed in CHO Cells for A3-Adenosine Receptor Binding Studies
2 to 3 ml of ice-cold TRIS buffer (pH 7.4; 50 mmol) is added to the tissue culture dishes. The cells are scraped off from the plates with a rubber scraper and collected in a beaker. The plates are rinsed with another 1 to 2 ml of TRIS buffer (pH 7.4; 50 mmol). The cell suspension is dispersed into centrifuge tubes and centrifuged at 4° C., 35,000 g, for 20 minutes. The supernatant is discarded, and the pellet is resuspended in TRIS buffer (pH 7.4; 50 mmol) with the homogenizer at the highest level for 3 to 4 seconds. This suspension is again centrifuged. The washing process is repeated another time. The pellet that is obtained is resuspended with the least possible TRIS buffer (pH 7.4; 50 mmol) and delivered in aliquots (0.25 ml and 0.5 ml).
The test substances are dissolved in DMSO to 10 mmol. The final concentration of DMSO in the assay is 2.5% for A1- and A2A-adenosine receptor assays and 1-2% for A2B- and A3-assays. Dilution series of the test substances are produced from the stock solution. Five to eight different test concentrations, which comprise 3 orders of magnitude (e.g., 1 nm to 1000 nm), are used.
Receptor Binding Assay with [^3H]PSB-11 on Recombinant A3-Adenosine Receptors Expressed in CHO Cells:
The assay is performed with […] according to the instructions under the receptor-binding assays with consideration for the above-listed amounts and solutions. The dilution in the assay is 1:50. The DMSO content is 2% here. The incubation at 23° C. in the oscillating water bath lasts for 45 minutes.
as §3

Molecule	A2B % inhib. @ 1 μmol (human A2B-receptor)	Ki (human A2B-receptor)	A3 % inhib. @ 1 μmol [1]	Ki [1]
4-(chloropyrazolyl)-1-(3-phenylpropyl)-[1,2,4-]triazolo[4,3-a]quinoxaline [Y = C—CH2—CH2—CH2-Ph, R5 = H, R6 = Cl]	(18%)	> 1000 nM	(32%)	> 1000 nM
COc1ccc2c(c1)nc(-c1cc(Cl)n[nH]1)c1nnc(Cc3cccs3)n12 [4-[3(5)-Chloro-1H-pyrazol-5(3)-yl]-7-methoxy-1-(2-thienylmethyl)-[1,2,4]triazolo[4,3-a]-quinoxaline]	(0%)	> 1000 nM	–	1.9 nM
Clc1cc(-c2nc3ccccc3n3c(-c4ccoc4)nnc23)n[nH]1 [Y = C-(3-Furyl), R5 = H, R6 = Cl]	(25%)	> 1000 nM	(31%)	> 1000 nM
Cn1nc(-c2nc3ccccc3n3c(Cc4cccs4)nnc23)cc1Cl [Y = C—CH2-(2-Thienyl), R5 = CH3, R6 = Cl, 4-(5-Chloro-1H-1-methyl-pyrazol-3-yl)-1-(2-thienylmethyl)-[1,2,4]triazolo[4,3-a]-quinoxaline]	(22%)	> 1000 nM	–	86 nM
COc1ccc2c(c1)nc(-c1cc(Cl)[nH]n1)c1nncn12 [Y = C—H, R3 = OCH3, R5 = H, R6 = Cl, 4-[3(5)-Chloro-1H-pyrazol-5(3)-yl]-7-methoxy-[1,2,4]triazolo[4,3-a]-quinoxaline]	(8%)	> 1000 nM	–	372 nM
Clc1cc(-c2nc3ccccc3n3cnnc23)[nH]n1 [Y = C—H, R5 = H, R6 = Cl]	(0%)	> 1000 nM	–	142 nM
Clc1cc(-c2nc3ccccc3n3nnnc23)n[nH]1 [Y = N, R5 = H, R6 = Cl, 4-[3(5)-Chloro-1H-pyrazol-5(3)-yl]tetrazolo[1,5-a]quinoxaline]	(13%)	> 1000 nM	(53%)	–
